Measured values reported in DBAASP.
In brackets after ≈: the same amount, converted by molar mass.

What follows are compounds tested on Escherichia coli ATCC 25922 (assay: ≥ marks a high value that may be exact or a test limit, other limits are often not marked, values filed in µg/mL are converted to µM).

**Q.** With `CC[C@H](C)[C@H](NC(=O)[C@@H](NC(=O)[C@@H](NC(=O)CNC(=O)[C@H](C)NC(=O)[C@@H](NC(=O)[C@H](CC(N)=O)NC(=O)[C@@H](NC(=O)[C@H](C)NC(=O)[C@H](CC(C)C)NC(=O)[C@H](CC(N)=O)NC(=O)[C@H](CCCCN)NC(=O)[C@@H](NC(=O)[C@@H](NC(=O)[C@H](CO)NC(=O)[C@H](CC(C)C)NC(=O)[C@H](Cc1ccccc1)NC(=O)CN)[C@@H](C)O)C(C)C)[C@@H](C)O)C(C)C)[C@@H](C)O)C(C)C)C(=O)N[C@@H](CC(=O)O)C(=O)N[C@H](C(=O)N[C@@H](CC(C)C)C(=O)N[C@@H](CCCCN)C(=O)N[C@H]1CSSC[C@@H](C(=O)N[C@@H](CCCN=C(N)N)C(=O)N[C@@H](CO)C(=O)O)NC(=O)CNC(=O)CNC(=O)[C@H]([C@@H](C)O)NC(=O)[C@H](C(C)C)NC(=O)[C@H](CCCCN)NC1=O)[C@@H](C)O` [GFLSTVKNLATNVAGTVIDTLKCKVTGGCRS] as the compound, how does the MIC read?
**A.** 120 µM (≈ 378 µg/mL)

**Q.** `CC[C@H](C)[C@H](NC(=O)CNC(=O)[C@H](CCC(N)=O)NC(=O)[C@H](C)NC(=O)[C@@H](NC(=O)[C@H](CCCCN)NC(=O)[C@H](CCCCN)NC(=O)[C@H](CC(C)C)NC(=O)[C@H](C)NC(=O)[C@H](CC(N)=O)NC(=O)[C@H](CC(C)C)NC(=O)CN)C(C)C)C(=O)N[C@@H](Cc1cnc[nH]1)C(=O)N[C@@H](CCC(=O)O)C(=O)N[C@@H](C)C(=O)N[C@H](C(=O)N[C@@H](CCCCN)C(=O)N[C@@H](CC(C)C)C(=O)N[C@H](C(=O)N[C@@H](CC(N)=O)C(=O)N[C@@H](CC(N)=O)C(=O)N[C@@H](Cc1cnc[nH]1)C(=O)N[C@H](C(=O)N[C@@H](CCC(N)=O)C(N)=O)C(C)C)[C@@H](C)CC)[C@@H](C)CC` [GLNALKKVAQGIHEAIKLINNHVQ] was tested. Which MIC did it give?
**A.** 11.3 µM (≈ 29.5 µg/mL)

**Q.** `CC[C@H](C)[C@H](NC(=O)[C@H](C)NC(=O)CNC(=O)[C@H](C)NC(=O)[C@H](CCCCN)NC(=O)[C@H](CO)NC(=O)[C@H](C)NC(=O)[C@H](CCSC)NC(=O)CN)C(=O)N[C@@H](C)C(=O)NCC(=O)N[C@@H](CCCCN)C(=O)N[C@H](C(=O)N[C@@H](C)C(=O)N[C@@H](CCCCN)C(=O)N[C@H](C(=O)N[C@@H](C)C(=O)N[C@@H](Cc1c[nH]c2ccccc12)C(=O)N[C@@H](CCCCN)C(=O)N[C@@H](C)C(=O)N[C@@H](CC(C)C)C(=O)NCC(=O)NCC(=O)N[C@@H](CS)C(N)=O)C(C)C)[C@@H](C)CC` [GMASKAGAIAGKIAKVAWKALGGC] was tested. Which MIC did it give?
**A.** 4.42 µM (≈ 9.98 µg/mL)

**Q.** Which MIC does the source give for `CC[C@H](C)[C@H](NC(=O)[C@H](CCCN=C(N)N)NC(=O)[C@H](CCCCN)NC(=O)[C@H](CCSC)NC(=O)[C@H](CCSC)NC(=O)CN)C(=O)N[C@@H](CCCCN)C(=O)N[C@H](C(=O)N[C@@H](CCSC)C(=O)N[C@@H](CCSC)C(N)=O)[C@@H](C)O` [GMMKRIKTMM] here?
**A.** > 200 µM

**Q.** How did the MIC turn out when `CC[C@H](C)[C@H](NC(=O)[C@H](Cc1c[nH]c2ccccc12)NC(=O)[C@H](Cc1c[nH]c2ccccc12)NC(=O)[C@H](Cc1c[nH]c2ccccc12)NC(=O)[C@H](Cc1c[nH]c2ccccc12)NC(=O)[C@H](CCCCN)NC(=O)[C@H](CCCCN)NC(=O)[C@H](CCCCN)NC(=O)[C@@H](N)CCCCN)C(N)=O` [KKKKWWWWI] was run?
**A.** 5.76 µM (≈ 7.99 µg/mL)
